# Experimental data: article PMC4008261, “Rewiring of regenerated axons by combining treadmill training with semaphorin3A inhibition” (Molecular Brain, 2014)
# Key:
# [1] = Stability in a silicone sheet; assay type: physicochemical; settings: compared with SM-216289
# Semaphorin = Semaphorin (Homo sapiens, UniProt Q14563); assay: Pharmacological profile: semaphorin inhibition; assay type: cell-based
# Text: In our previous study, we used an osmotic mini-pump to deliver the semaphorin3A inhibitor SM-216289 [20]. However, in clinical practice, this type of invasive drug delivery method is not ideal. Therefore, we developed a novel DDS that utilizes a silicone matrix to continuously deliver SM-345431 (a newly developed semaphorin3A inhibitor) intrathecally. We evaluated the drug release profile of SM-345431 in this new silicone matrix preparation and the potency of SM-345431-mediated semaphorin3A inhibition in vitro (Figure 1). […] When chick embryonic DRG explants and semaphorin3A-expressing COS7 cell aggregates (semaphorin3A-COS) were co-cultured in a collagen gel, the neurites of the DRG explants grew away from the semaphorin3A-COS, as shown in Figure 1B. […] We also evaluated the selectivity of SM-345431 for semaphorin3A inhibition by examining the pharmacological profile of SM-345431 (Tables 1 and 2). […] The release of SM-345431 (0.1 mg/mg loading 10%) in vivo was calculated as 0.5-0.7 μg/day, and this dose was similar to the dose of the semaphorin3A inhibitor (SM-216289) that we administered using osmotic mini pumps in our previous study. […]
# semaphorin3A = target: T1, semaphorin3A (Homo sapiens, UniProt Q14563); assay: Collagen co-culture assay (E8 chick DRGs and semaphorin3A-expressing COS7 cell aggregates); assay type: cell-based; design: expressed in transfected cells; host or cells: COS7; settings: chick embryonic DRG explants co-cultured with semaphorin3A-COS in collagen gel
# T1 sequence (Q14563 21-771): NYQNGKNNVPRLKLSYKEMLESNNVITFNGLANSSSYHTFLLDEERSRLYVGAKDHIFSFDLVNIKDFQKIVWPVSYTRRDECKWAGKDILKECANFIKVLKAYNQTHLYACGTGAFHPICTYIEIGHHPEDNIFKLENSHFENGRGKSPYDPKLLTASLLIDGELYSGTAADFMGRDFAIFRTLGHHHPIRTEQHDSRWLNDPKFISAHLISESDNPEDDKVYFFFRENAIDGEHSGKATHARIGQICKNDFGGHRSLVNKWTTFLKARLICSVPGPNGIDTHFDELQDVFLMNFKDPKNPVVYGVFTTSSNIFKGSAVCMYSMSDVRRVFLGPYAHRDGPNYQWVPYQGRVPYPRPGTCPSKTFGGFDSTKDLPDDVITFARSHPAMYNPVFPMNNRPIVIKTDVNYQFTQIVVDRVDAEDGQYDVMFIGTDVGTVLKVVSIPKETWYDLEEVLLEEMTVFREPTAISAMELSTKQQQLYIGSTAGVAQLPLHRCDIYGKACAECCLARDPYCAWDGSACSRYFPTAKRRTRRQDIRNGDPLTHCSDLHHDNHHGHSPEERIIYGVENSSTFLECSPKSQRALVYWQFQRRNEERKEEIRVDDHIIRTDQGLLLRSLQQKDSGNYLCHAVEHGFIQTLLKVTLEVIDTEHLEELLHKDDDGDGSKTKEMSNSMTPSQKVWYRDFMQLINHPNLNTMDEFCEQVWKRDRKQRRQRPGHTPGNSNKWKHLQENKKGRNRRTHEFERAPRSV
# Experimental: The growth cone collapse assay and collagen co-culture experiments were performed as previously described. To examine the effects of SM-345431-silicone, small pieces (2 × 1 × 0.3 mm; approximately 1 mg containing 1 μg of SM-345431) of the SM-345431-silicone or control-silicone were placed in a collagen gel adjacent to E8 chick DRGs and COS7 cell aggregates, as shown in Figure 1C.
smiles,measurement,setting,value
"CC(=O)c1cc2c(=O)c3c(C(=O)O)c(O)c(O)cc3oc2c(C(C)=O)c1-c1coc2cc(O)c(O)c(C(=O)O)c2c1=O [SM-345431, Vinaxanthone]",stability in a silicone sheet,[1],better stability in a silicone sheet than SM-216289
same,IC50,Semaphorin,100 to 200 nM
same,semaphorin3A inhibitory activity compared with SM-216289,Semaphorin,approximately the same semaphorin3A inhibitory activity as SM-216289
same,block of the chemo-repulsive effects of semaphorin3A on DRG neurites,semaphorin3A,chemo-repulsive effects of semaphorin3A were blocked by SM-345431 in a dose-dependent manner
